Legend:
Assay in all cases: relative viability (nuclei count vs DMSO), 5 days (fraction); higher = more cells survive
VE-821 + Dasatinib = compound: CS(=O)(=O)c1ccc(-c2cnc(N)c(C(=O)Nc3ccccc3)n2)cc1 [VE-821] + Cc1nc(Nc2ncc(C(=O)Nc3c(C)cccc3Cl)s2)cc(N2CCN(CCO)CC2)n1 [Dasatinib] (partner 0.075 µM)
In short: (§1)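 Five library-drug doses in √10 steps were combined with a fixed anchor-drug dose, or a single drug was given alone, by pin tool to lung cancer cell lines in 1536-well plates the day after seeding. Nuclei were stained and counted after 5 days. Relative viability is the nuclei count in treated wells over that in vehicle wells, taken as the median of duplicate plates.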

Vismodegib + Trametinib = compound: CS(=O)(=O)c1ccc(C(=O)Nc2ccc(Cl)c(-c3ccccn3)c2)c(Cl)c1 [Vismodegib] + CC(=O)Nc1cccc(-n2c(=O)n(C3CC3)c(=O)c3c(Nc4ccc(I)cc4F)n(C)c(=O)c(C)c32)c1 [Trametinib] (partner 0.02 µM)
In short: as §1

VE-821 + Lapatinib = compound: CS(=O)(=O)c1ccc(-c2cnc(N)c(C(=O)Nc3ccccc3)n2)cc1 [VE-821] + CS(=O)(=O)CCNCc1ccc(-c2ccc3ncnc(Nc4ccc(OCc5cccc(F)c5)c(Cl)c4)c3c2)o1 [Lapatinib] (partner 2 µM)
In short: as §1

VE-821 + Pictilisib = compound: CS(=O)(=O)c1ccc(-c2cnc(N)c(C(=O)Nc3ccccc3)n2)cc1 [VE-821] + CS(=O)(=O)N1CCN(Cc2cc3nc(-c4cccc5[nH]ncc45)nc(N4CCOCC4)c3s2)CC1 [Pictilisib] (partner 1 µM)
In short: as §1

UMC-11 was tested, and the relative viability (VE-821 + Dasatinib; first compound 0.08 µM) was 0.553, the relative viability (VE-821 + Dasatinib; first compound 0.253 µM) was 0.44 and the relative viability (VE-821 + Dasatinib; first compound 0.8 µM) was 0.516. The relative viability (VE-821 + Dasatinib; first compound 2.53 µM) was 0.524, the relative viability (VE-821 + Dasatinib; first compound 8 µM) was 0.374 and the relative viability (Vismodegib + Trametinib; first compound 0.08 µM) was 0.422. The relative viability (Vismodegib + Trametinib; first compound 0.253 µM) was 0.669, the relative viability (Vismodegib + Trametinib; first compound 0.8 µM) was 0.609 and the relative viability (Vismodegib + Trametinib; first compound 2.53 µM) was 0.618. The relative viability (Vismodegib + Trametinib; first compound 8 µM) was 0.375, the relative viability (VE-821 + Lapatinib; first compound 0.08 µM) was 1.23 and the relative viability (VE-821 + Lapatinib; first compound 0.253 µM) was 0.845. It also gave a relative viability (VE-821 + Lapatinib; first compound 0.8 µM) of 0.916, a relative viability (VE-821 + Lapatinib; first compound 2.53 µM) of 1.12 and a relative viability (VE-821 + Lapatinib; first compound 8 µM) of 0.644. The relative viability (VE-821 + Pictilisib; first compound 0.08 µM) was 0.933, the relative viability (VE-821 + Pictilisib; first compound 0.253 µM) was 0.781 and the relative viability (VE-821 + Pictilisib; first compound 0.8 µM) was 0.613. It also gave a relative viability (VE-821 + Pictilisib; first compound 2.53 µM) of 0.84 and a relative viability (VE-821 + Pictilisib; first compound 8 µM) of 0.4.

From the supplement of paper PMC10307832
